Measurements reported in patent US20070218023A1, “Uses of melatonin in skin” (priority 2006, published 2007).
“Also recorded” adds a separate entry of the source.

What was measured:
HaCaT keratinocytes [1] = assay: Kinetics of melatonin metabolism in untreated keratinocytes (intracellular levels); assay type: in vitro ADME, human; details: not preincubated with melatonin, no UV; for intracellular level in untreated keratinocytes after 24 hrs: cultivation for 24 hrs
Method: (§1) Parallel control dishes were incubated with PBS without melatonin.
(§2) Aliquots ([…]) of samples from the cell suspension and cell-free experiments were separated on an LC-MS QP8000a (Shimadzu, Japan) equipped with diode array and single quadrupole mass-spectrometric detectors. The separation system consisted of a Restec Allure C18 reverse-phase column (150×4.6 mm; 5 μm particle size; and 60 A pore size) with mobile phase consisting of 25% acetonitrile and 0.1% acetic acid. Elution was carried out isocratically at flow rate of 0.75 ml/min and temperature of 40° C. The eluent was routed to the mass-spectrometric electrospray interface (ESI) set in positive mode and using nitrogen as the nebulizing gas. Mass-spectrometry parameters were as follows: nebulizer gas flow rate, 4.5 l/min; electrospray voltage, 4.5 kV; and curved desolvation line (CDL) heater temperature, 250° C. The selected ion monitoring (SIM) mode was used to detect ions with m/z=249 (monohydroxymelatonin); m/z=265 (dihydroxymelatonin and AFMK); m/z=237 (AMK); and m/z=233 (melatonin). System control and data acquisition were performed with the LC-MS workstation Class-8000 software (Shimadzu, Japan).

[2] = UVR irradiation of melatonin solution in a cell-free system (HPLC, LC-MS); assay type: physicochemical; details: melatonin in PBS, UV-doses of 25, 50 and 100 mJ/cm^2
Method: as §1
(§3) Internal standards for HPLC were dissolved in absolute ethanol. […] AFMK was produced as described previously (48).
Irradiation experiments were performed with a Biorad UV transluminator 2000 (Bio-RAD Laboratories, Hercules, Calif.), calibrated as described previously (37). Briefly, a scanning double monochromator spectroradiometer (Model OL 754, Optronic Laboratories, Orlando, Fla.) was used to scan emission of wavelengths from 250 to 800 nm at 1 nm increments. The spectroradiometer had been calibrated with an NIST traceable tungsten-halogen spectral irradiance standard (Model 75-10E, Optronic Laboratories, Orlando, Fla.) with a precision current source (Model 65, Optronic Laboratories, Orlando, Fla.). An additional calibration module (Model 752-150, Optronic Laboratories, Orlando, Fla.) measured both photometric gain and wavelength accuracy. Wavelength calibration and gain were established or verified before each experimental use. The UV source emission (shown in FIG. 1) consisted primarily of UVB light (wavelength 280-320 nm; 60%), with minor output in the UVA (320-400 nm) and UVC (120-280 nm) range (˜30% and ˜10%, respectively). […]
Peak areas increased linearly with UV-doses (FIG. 2). […] Product identity was determined by comparison with known standards of melatonin metabolites. […]

HaCaT keratinocytes [3] = assay: Melatonin and metabolites in supernatants and cell lysates of UV-irradiated HaCaT keratinocytes (HPLC, LC-MS); assay type: in vitro ADME, human
Method: as §1, §3
Irradiation experiments were performed with a Biorad UV transluminator 2000 (Bio-RAD Laboratories, Hercules, Calif.), calibrated as described previously (37). Briefly, a scanning double monochromator spectroradiometer (Model OL 754, Optronic Laboratories, Orlando, Fla.) was used to scan emission of wavelengths from 250 to 800 nm at 1 nm increments. The spectroradiometer had been calibrated with an NIST traceable tungsten-halogen spectral irradiance standard (Model 75-10E, Optronic Laboratories, Orlando, Fla.) with a precision current source (Model 65, Optronic Laboratories, Orlando, Fla.). An additional calibration module (Model 752-150, Optronic Laboratories, Orlando, Fla.) measured both photometric gain and wavelength accuracy. Wavelength calibration and gain were established or verified before each experimental use. The UV source emission (shown in FIG. 1) consisted primarily of UVB light (wavelength 280-320 nm; 60%), with minor output in the UVA (320-400 nm) and UVC (120-280 nm) range (˜30% and ˜10%, respectively). Melatonin photoproducts generation was performed after irradiation at the UV doses of 25, 50, 75 or 100 mJ/cm^2, as indicated in the figures.
as §2

HaCaT keratinocytes [4] = details: human
From the text: HaCaT keratinocytes were cultivated in Dulbecco's Modified Eagle Medium (DMEM) supplemented with glucose, L-glutamine, pyridoxine hydrochloride (Gibco, Invitrogen Life Technologies Carlsbad, Calif.), 10% fetal bovine serum (Mediatech Inc., Herndon, Va.) and 1% penicillin/streptomycin/amphotericin antibiotic solution (Sigma Chemical Co., St. Louis, Mo.). Cells were trypsinized from culture flasks and seeded in 10 cm petri dishes (Corning Inc., Corning, N.Y.) at a density of 10^6 cells/dish and incubated overnight. The next day, after confluence of 80-90% was reached, cells were washed once with PBS to remove remnants of media, and incubation with melatonin in PBS was performed for 30 min. Parallel control dishes were incubated with PBS without melatonin. After incubation the Petri dishes were irradiated from below with UVR. […]
Cell extracts were briefly sonicated in 50 μl absolute ethanol in a Branson 5200 waterbath at ambient temperature (Branson Ultrasonics Corporation, Danbury, Conn.). […] Column eluate was monitored by Model 2487 UV detector (275 nm) and Model 991 photodiode array detectors and the data stored electronically for subsequent interpretation.

HaCaT keratinocytes [5] = assay: Morphology analysis of keratinocytes after UV irradiation; assay type: cell-based, human; details: melatonin 10^−3 M, 50 mJ/cm^2, 24 hours after irradiation
Method: Cell media from overnight incubation was removed and replaced with fresh media containing melatonin at the concentration of 10^−3 M, the maximum effective concentration identified in previous studies (45, 46). […] Irradiation of the Petri dishes was performed with UVR from below, and after irradiation PBS was replaced by fresh culture media for 24 or 48 hrs. Paraely, cells were incubated with or without melatonin, but not subjected to irradiation to exclude effects of melatonin alone.
Digital pictures from six to ten randomly chosen fields per Petri dish for each experimental condition were acquired at different time points after UV exposure (0, 24 and 48 hrs) with a NIKON Eclipse TE300 microscope (Melville, N.Y.). At 24 and 48 hrs after UV exposure, pictures of detached cells were first taken, then detached cells were removed and another set of pictures was acquired to assess the degree of confluency of cells which were still attached to the bottom of the culture dish. Pictures were recorded and analyzed with MetaVue software. Then, keratinocytes were harvested from Petri dishes by trypsinization, washed three times with ice-cold PBS and frozen in −80° C. until further processing.

HaCaT keratinocytes [6] = assay: Mitochondrial membrane potential (ΔΨ) using JC-1, confocal microscopy; assay type: cell-based, human; details: for mitochondrial membrane potential, melatonin alone: melatonin 10−4 M, without UV-exposure
Method: Mitochondrial inner membrane potential (ΔΨ) in immortalized HaCaT keratinocytes was measured by using confocal microscopy with 5,5′,6,6′tetrachloro-1,1′,3,3′-tetraethylbenzimidazol-carbocyanine iodide (JC-1) (Molecular Probes, Carlsbad, Calif.) (66). JC-1 selectively enters mitochondria and aggregates when the membrane potential values exceed 80-100 mV, causing a shift in fluorescence from 530 nm (green) to 590 nm (red). For experiments, human HaCaT keratinocytes were seeded in Lab-Tek II 8-well chambered coverglass (Nalge Nunc, Inc., Naperville, Ill.) and grown until 90-100% of confluence. Culture media were removed and cells washed with PBS and then incubated for 30 or 120 min with melatonin at […]. Stock solution of melatonin was dissolved in DMEM and added to the culture media. After incubation, cells were washed twice with PBS and subjected to irradiation with UVB at the dose of 50 mJ/cm^2 or incubated with serum free medium containing 1 mM H2O2 for 1 h. After irradiation cells were incubated in DMEM containing 5% FBS and supplemented with JC-1 (2.5 μg/ml) for 30 min at 37° C. […] Images were acquired from three to six randomly chosen fields for each experimental condition showing nuclear cross-section. Green and red channels were merged and ratio of red to green channel was shown in blue.
Bands of immunoblots were evaluated by measurement of density with Scion Image analysis software (NIH). Density values from two or three experiments were taken for calculation of mean values and standard deviation. For statistical analysis of mitochondrial membrane potential, images showing nuclear cross-section were acquired from three to six randomly chosen fields -or each experimental condition. Ration of red/green emission was calculated using ImageJ software (NIH, Bethesda, […].) and differences were analysed with Student's t-test and were considered significant when p-value was <0.05.

HaCaT keratinocytes [7] = details: [3H]-labeled melatonin tracer only; cited from earlier work

COc1ccc2[nH]c(O)c(CCNC(C)=O)c2c1 [2-hydroxymelatonin]
intracellular level in untreated keratinocytes, initial (basal) (HaCaT keratinocytes [1]): 7.8 pmoles/1000 cells | intracellular level in untreated keratinocytes after 24 hrs (HaCaT keratinocytes [1]): 20.4 pmoles/1000 cells

COc1ccc(NC=O)c(C(=O)CCNC(C)=O)c1 [AFMK, N^1-acetyl-N^2-formyl-5-methoxykynuramine]
relative HPLC peak size of photoproduct [2]: largest peak | intracellular level in untreated keratinocytes, initial (basal) (HaCaT keratinocytes [1]): 17.4 pmoles/1000 cells | intracellular level in untreated keratinocytes after 24 hrs (HaCaT keratinocytes [1]): 33.6 pmoles/1000 cells | time of highest level in supernatants post UV exposure (HaCaT keratinocytes [3]; HaCaT preincubated with 10−3 M melatonin, UVR): 40 min | AFMK level in supernatants, irradiated vs nonirradiated (HaCaT keratinocytes [3]; cells not preincubated with melatonin): ~13 fold | AFMK level in supernatants, irradiated vs non-irradiated (HaCaT keratinocytes [3]; melatonin preincubation, 50 mJ/cm^2): ~100 fold | AFMK level in cell lysates, irradiated vs nonirradiated (HaCaT keratinocytes [3]; melatonin preincubation, UVR): approximately 3.5 fold | AFMK level in native keratinocytes (lysates), UV-stimulated increase (HaCaT keratinocytes [3]; not preincubated with melatonin): 1.9 fold

COc1ccc(N)c(C(=O)CCNC(C)=O)c1 [AMK, N^1-acetyl-5-methoxykynuramine]
detection of AMK after UVR exposure (HaCaT keratinocytes [3]): could not be detected

COc1cc2c(CCNC(C)=O)c[nH]c2cc1O [6-hydroxymelatonin]
intracellular level in untreated keratinocytes, initial (basal) (HaCaT keratinocytes [1]): 53.4 pmoles/1000 cells | intracellular level in untreated keratinocytes after 24 hrs (HaCaT keratinocytes [1]): 16.8 pmoles/1000 cells

COc1ccc2[nH]cc(CCNC(C)=O)c2c1O [4-hydroxymelatonin]
intracellular detection (HaCaT keratinocytes [3]; basal conditions and after UVR exposure): not detected intracellularly

COc1ccc2[nH]cc(CCNC(C)=O)c2c1 [melatonin]
photoproducts generated by UV irradiation of melatonin solution [2]: generated four compounds | intracellular melatonin concentration (HaCaT keratinocytes [4]): approximately 10−6 M | uptake of melatonin into the cell, ratio of intra- to extracellular melatonin (% of applied levels) (HaCaT keratinocytes [4]): 0.125% | intracellular level in untreated keratinocytes, initial (basal) (HaCaT keratinocytes [1]): 146.0 pmoles/1000 cells | intracellular level in untreated keratinocytes after 24 hrs (HaCaT keratinocytes [1]): 65.0 pmoles/1000 cells | melatonin level in supernatants after UV exposure, % of nonirradiated melatonin solution (HaCaT keratinocytes [3]; human): 99.7% | keratinocyte confluency and empty spaces after UV irradiation (HaCaT keratinocytes [5]): confluency was higher compared to non-treated control and no empty spaces were seen | UV-induced mitochondrial membrane potential reduction, red/green fluorescence ratio (HaCaT keratinocytes [6]; melatonin 10^−3 to 10^−6 M for 30 or 120 min, UVB 50 mJ/cm^2): attenuated by melatonin in a dose dependent manner; also recorded: prevented membrane potential reduction | H2O2-induced reduction of mitochondrial membrane potential (HaCaT keratinocytes [6]; melatonin 10^−4 M, H2O2 1 mM, 60 minutes): significantly counteracted | mitochondrial membrane potential, melatonin alone (HaCaT keratinocytes [6]): no change of mitochondrial membrane potential | mitochondrial membrane potential, melatonin alone (HaCaT keratinocytes [6]; listed as Melatonin): did not influence mitochondrial membrane potential | mitochondrial membrane potential after UVB (JC-1 images) (HaCaT keratinocytes [6]; preincubation with melatonin 10^−4 M, UVB 50 mJ/cm^2): preserved mitochondrial membrane potential | melatonin uptake in HaCaT keratinocytes (Nickel and Wohlrab) (HaCaT keratinocytes [7]): 0.097%
